# Results reported in patent US20230413820A1, “HERBICIDAL N-HETEROARYL PYRAZOLE COMPOUNDS” (SYNGENTA CROP PROTECTION AG, priority 2020, published 2023).
# Assays:
# Format in all cases: in vivo
# [1] = tested on: Abutilon theophrasti (ABUTH); assay: Post-emergence herbicide glasshouse test; details: 250 g/ha, sprayed after 8 days cultivation, evaluated after 13 days
# Protocol: (§1) Seeds of a variety of test species (Abutilon theophrasti (ABUTH), Amaranthus retoflexus (AMARE), Echinochloa crus-galli (ECHCG), Ipomoea hederacea (IPOHE), Setaria faberi (SETFA)) are sown in standard soil in pots. After cultivation for one day (pre-emergence) or after 8 days cultivation (post-emergence) under controlled conditions in a glasshouse (at 24/16° C., day/night; 14 hours light; 65% humidity), the plants are sprayed with an aqueous spray solution derived from the formulation of the technical active ingredient in acetone/water (50:50) solution containing 0.5% Tween 20 (polyoxyethelyene sorbitan monolaurate, CAS RN 9005-64-5). Compounds are applied at 250 g/ha unless otherwise stated. The test plants are then grown in a glasshouse under controlled conditions in a glasshouse (at 24/16° C., day/night; 14 hours light; 65% humidity) and watered twice daily. After 13 days for pre- and post-emergence, the test is evaluated for the percentage damage caused to the plant. The biological activities are shown in the following table on a five-point scale (5=81-100%; 4=61-80%; 3=41-60%; 2=21-40%; 1=0-20%).
# [2] = tested on: Amaranthus retoflexus (AMARE); assay: Post-emergence herbicide glasshouse test; details: 250 g/ha, sprayed after 8 days cultivation, evaluated after 13 days
# Protocol: as §1
# [3] = tested on: Echinochloa crus-galli (ECHCG); assay: Post-emergence herbicide glasshouse test; details: 250 g/ha, sprayed after 8 days cultivation, evaluated after 13 days
# Protocol: as §1
# [4] = tested on: Ipomoea hederacea (IPOHE); assay: Post-emergence herbicide glasshouse test; details: 250 g/ha, sprayed after 8 days cultivation, evaluated after 13 days
# Protocol: as §1
# Setaria faberi (SETFA) [5] = assay: Post-emergence herbicide glasshouse test; details: 250 g/ha, sprayed after 8 days cultivation, evaluated after 13 days
# Protocol: as §1
# [6] = tested on: Abutilon theophrasti (ABUTH); assay: Pre-emergence herbicide glasshouse test; details: 250 g/ha, sprayed after one day cultivation, evaluated after 13 days
# Protocol: as §1
# [7] = tested on: Amaranthus retoflexus (AMARE); assay: Pre-emergence herbicide glasshouse test; details: 250 g/ha, sprayed after one day cultivation, evaluated after 13 days
# Protocol: as §1
# [8] = tested on: Echinochloa crus-galli (ECHCG); assay: Pre-emergence herbicide glasshouse test; details: 250 g/ha, sprayed after one day cultivation, evaluated after 13 days
# Protocol: as §1
# [9] = tested on: Ipomoea hederacea (IPOHE); assay: Pre-emergence herbicide glasshouse test; details: 250 g/ha, sprayed after one day cultivation, evaluated after 13 days
# Protocol: as §1
# Setaria faberi (SETFA) [10] = assay: Pre-emergence herbicide glasshouse test; details: 250 g/ha, sprayed after one day cultivation, evaluated after 13 days
# Protocol: as §1
SMILES,"percentage damage caused to the plant, ABUTH [1]","percentage damage caused to the plant, AMARE [2]","percentage damage caused to the plant, ECHCG [3]","percentage damage caused to the plant, IPOHE [4]","percentage damage caused to the plant, SETFA (Setaria faberi (SETFA) [5])","percentage damage caused to the plant, ABUTH [6]","percentage damage caused to the plant, AMARE [7]","percentage damage caused to the plant, ECHCG [8]","percentage damage caused to the plant, IPOHE [9]","percentage damage caused to the plant, SETFA (Setaria faberi (SETFA) [10])"
FC(F)(F)c1cc(Oc2cccc(Cl)n2)n(-c2ncc(Cl)cn2)n1 [Compound 1.001],2 (2=21-40%),5 (5=81-100%),4 (4=61-80%),2 (2=21-40%),3 (3=41-60%),1 (1=0-20%),5 (5=81-100%),5 (5=81-100%),1 (1=0-20%),5 (5=81-100%)
FC(F)Oc1cccc(Oc2cc(C(F)(F)F)nn2-c2ncc(Cl)cn2)n1 [Compound 1.002],5 (5=81-100%),5 (5=81-100%),5 (5=81-100%),4 (4=61-80%),5 (5=81-100%),4 (4=61-80%),5 (5=81-100%),5 (5=81-100%),3 (3=41-60%),5 (5=81-100%)
FC(F)c1cccc(Oc2cc(C(F)(F)F)nn2-c2ncc(Cl)cn2)n1 [Compound 1.003],3 (3=41-60%),5 (5=81-100%),4 (4=61-80%),4 (4=61-80%),4 (4=61-80%),1 (1=0-20%),5 (5=81-100%),4 (4=61-80%),2 (2=21-40%),2 (2=21-40%)
FC(F)(F)c1cccc(Oc2cc(C(F)(F)F)nn2-c2ncc(Cl)cn2)n1 [Compound 1.004],4 (4=61-80%),5 (5=81-100%),4 (4=61-80%),3 (3=41-60%),4 (4=61-80%),4 (4=61-80%),5 (5=81-100%),5 (5=81-100%),2 (2=21-40%),5 (5=81-100%)
"Fc1cnc(-n2nc(C(F)(F)F)cc2Oc2cccc(OC(F)F)n2)nc1 [Compound 1.005, 2-[5-[[6-(difluoromethoxy)-2-pyridyl]oxy]-3-(trifluoromethyl)pyrazol-1-yl]-5-fluoro-pyrimidine]",5 (5=81-100%),5 (5=81-100%),4 (4=61-80%),4 (4=61-80%),4 (4=61-80%),4 (4=61-80%),5 (5=81-100%),5 (5=81-100%),5 (5=81-100%),5 (5=81-100%)
FC(F)(F)c1cc(Oc2ccnc(C(F)(F)F)n2)n(-c2ncc(Cl)cn2)n1 [Compound 1.011],,4 (4=61-80%),4 (4=61-80%),1 (1=0-20%),4 (4=61-80%),,5 (5=81-100%),4 (4=61-80%),1 (1=0-20%),5 (5=81-100%)
FC(F)(F)c1cc(Oc2ccnc(Cl)n2)n(-c2ncc(Cl)cn2)n1 [Compound 1.012],,2 (2=21-40%),1 (1=0-20%),1 (1=0-20%),1 (1=0-20%),,3 (3=41-60%),1 (1=0-20%),1 (1=0-20%),2 (2=21-40%)
Cc1nccc(Oc2cc(C(F)(F)F)nn2-c2ncc(Cl)cn2)n1 [Compound 1.015],,2 (2=21-40%),1 (1=0-20%),1 (1=0-20%),1 (1=0-20%),,3 (3=41-60%),1 (1=0-20%),1 (1=0-20%),2 (2=21-40%)
